According to ChEMBL document CHEMBL3045392, “Synthesis and fungicidal evaluation of some new anilinopyrimidine derivatives” (2013):

Columns and labels:
Format in all cases: functional
[1] = test system: Aspergillus niger; experiment: Fungicidal activity against Aspergillus niger assessed as growth inhibition at 50 ug/ml after 7 days; conditions: 168 h, read-out: IZ
[2] = test system: Aspergillus niger; experiment: Fungicidal activity against Aspergillus niger assessed as growth inhibition at 1000 ug/ml after 7 days; conditions: 168 h, read-out: IZ
[3] = test system: Aspergillus niger; experiment: Fungicidal activity against Aspergillus niger assessed as growth inhibition at 10 ug/ml after 7 days; conditions: 168 h, read-out: IZ
[4] = test system: Aspergillus niger; experiment: Fungicidal activity against Aspergillus niger assessed as growth inhibition at 100 ug/ml after 7 days; conditions: 168 h, read-out: IZ
[5] = test system: Aspergillus niger; experiment: Fungicidal activity against Aspergillus niger assessed as time required for hyphae to burst at 10 ug/ml
[6] = test system: Aspergillus niger; experiment: Fungicidal activity against Aspergillus niger assessed as time required for hyphae to burst at 5 ug/ml
[7] = test system: Aspergillus niger; experiment: Fungicidal activity against Aspergillus niger assessed as time required for hyphae to burst at 7.5 ug/ml
[8] = test system: Aspergillus niger; experiment: Fungicidal activity against Aspergillus niger assessed as time required for hyphae to burst at 2.5 ug/ml

## Cc1nc(Nc2ccccc2)nc2c1C(=N)C(C#N)CN(C(=O)c1ccccc1)C2 (configuration not stated)
[1]
  zone of inhibition at 50 µg/mL: 1.02 mm
[2]
  zone of inhibition at 1000 µg/mL: 2.1 mm
[3]
  zone of inhibition at 10 µg/mL: 1 mm
[4]
  zone of inhibition at 100 µg/mL: 1.33 mm

## Cc1cc(CBr)nc(Nc2ccccc2)n1
[1]
  zone of inhibition at 50 µg/mL: 1.9 mm
[2]
  zone of inhibition at 1000 µg/mL: 2.2 mm
[3]
  zone of inhibition at 10 µg/mL: 1.5 mm
[4]
  zone of inhibition at 100 µg/mL: 2 mm

## Cc1nc(Nc2ccccc2)nc(C)c1Br
[1]
  zone of inhibition at 50 µg/mL: 2.1 mm
[2]
  zone of inhibition at 1000 µg/mL: 2.9 mm
[3]
  zone of inhibition at 10 µg/mL: 1.6 mm
[4]
  zone of inhibition at 100 µg/mL: 2.5 mm

## Cc1nc(Nc2ccccc2)nc(C)c1C#N
[1]
  zone of inhibition at 50 µg/mL: 1.7 mm
[2]
  zone of inhibition at 1000 µg/mL: 2.5 mm
[3]
  zone of inhibition at 10 µg/mL: 1.4 mm
[4]
  zone of inhibition at 100 µg/mL: 1.9 mm

## CC(=O)N(c1ccccc1)c1nc(C)cc(C)n1 [N-ACETYL PYRIMETHANIL]
[1]
  zone of inhibition at 50 µg/mL: 2.4 mm
[5]
  Time: 51 s
[2]
  zone of inhibition at 1000 µg/mL: 3.4 mm
[3]
  zone of inhibition at 10 µg/mL: 2.1 mm
[6]
  Time: 18 s
[7]
  Time: 32 s
[8]
  Time: 9 s
[4]
  zone of inhibition at 100 µg/mL: 2.7 mm

## Cc1cc(C)nc(Nc2ccccc2)n1 [PYRIMETHANIL]
[1]
  zone of inhibition at 50 µg/mL: 2.9 mm
[5]
  Time: 56 s
[2]
  zone of inhibition at 1000 µg/mL: 4 mm
[3]
  zone of inhibition at 10 µg/mL: 2.6 mm
[6]
  Time: 21 s
[7]
  Time: 39 s
[8]
  Time: 12 s
[4]
  zone of inhibition at 100 µg/mL: 3.2 mm
